{"source": "patent US20070191324A1", "about": "“Methods for treatment or prophylaxis of aldosterone-mediated pathogenic effects in a subject using an epoxy-steroidal aldosterone antagonist” (priority 1999, published 2007)", "key": {"[1]": {"system": "patients with mild-to-moderate hypertension", "assay": "Long-term open-label safety and efficacy study of eplerenone (Example D-11)", "assay_type": "in vivo, human", "parameters": "mean change from baseline SBP: unit not given beside the values", "settings": "for Change Mean seated DBP, Baseline to End of Treatment / Change Mean seated SBP, Baseline to End of Treatment: Responders, ITT", "protocol": "This 6- to 16-month, open-label, single-group, titration-to-effect study assessed the safety, tolerability, and efficacy of EPL in patients with mild-to-moderate hypertension.\nPatients (n=586) with DBP ≧90 mmHg and <110 mmHg, or SBP ≧140 mmHg and <180 mmHg, received EPL 50 mg QD. If BP was uncontrolled at Weeks 2 or 4 (DBP ≧90 mmHg or SBP ≧140 mmHg), EPL was up-titrated to 100 mg QD and, if necessary, 200 mg QD. If BP remained uncontrolled at any time from Week 6 to the end of Month 3, a second antihypertensive medication of the investigator's choice was added. Safety, tolerability, and BP were assessed at protocol-specified times."}, "[2]": {"system": "L-NAME/Angiotensin II/NaCl-treated rats", "assay": "L-NAME/Angiotensin II/NaCl model of cardiac and renal injury (Example A-1)", "assay_type": "in vivo, Male Wistar rats", "protocol": "Animals. Male Wistar rats (n=44), weighing 200 to 225 grams, and obtained from Charles River Laboratories (Wilmington, Mass.) were used in the study. All animals were housed in a room lighted 12 hours per day at an ambient temperature of 22±1° C. Animals were allowed one week to recover after arrival and had free access to Purina Lab Chow 5001 (Ralston Purina Inc, St. Louis, Mo.) and tap water until the initiation of the experiment. After initiation of the protocols, animals in all groups were placed in individual metabolic cages, handled and weighed daily. Twenty-four hour fluid intake, food intake and urine output were measured daily. […] On day 14 of L-NAME treatment, animals were decapitated, trunk blood was collected into chilled tubes containing ethylene diamine tetraacetic acid and the heart and kidneys were removed, blotted dry and immediately weighed. […] Drugs. Eplerenone was supplied by G.D. Searle Pharmaceuticals (St. […] Dexamethasone was dissolved in sesame oil and administered as a single subcutaneous dose (12 μg/kg/day) every day. This dose of dexamethasone has been reported to, maintain normal weight gain, glomerular filtration rate, and fasting plasma glucose and insulin levels in adrenalectomized rats. Stanton, B., Giebisch G et al. J. Clin. Invest 1985 75:1317-1326. The experiment was concluded on day 14 of L-NAME treatment. […] (Hou J et al. J. Clin. Invest 1995 96:2469-2477. […] This lower dose induced lesions in stroke-prone spontaneously hypertensive rats. (Rocha R et al. […] Dexamethasone, aldosterone and L-NAME were purchased from Sigma Chemical Co. (St. Louis, Mo.). […] Surgical Procedure. […] Bilateral adrenalectomy was performed using a dorsolumbar approach, making separate incisions on each side. […] No post operative deaths occurred. Assays and Analyses. Systolic blood pressure was measured in awake animals by tail-cuff plethysmography using a Natsume KN-210 manometer and tachometer (Peninsula Laboratories Inc, Belmont, Calif.). Rats were warmed at 37° C. for 10 minutes and allowed to rest quietly in a Lucite chamber before measurement of blood pressure. Urinary protein concentration was determined in urine collected on the last day of the experiment using the sulfosalicylic acid turbidity method. […] Plasma aldosterone concentration was determined using a standard radioimmunoassay-kit from Diagnostic Products Co. (Los Angeles, Calif.). Plasma renin activity (“PRA”) was determined by radioimmunoassay detection of generated angiotensin I (DiaSorin Inc., Stillwater, Minn.). Histology. Hearts were stained with collagen specific dye Sirius red for determination of fibrosis as reported elsewhere. (Young M et al. Am. J. Physiol 1995 269:[…]-[…]). Interstitial collagen was determined using an automated image analyzer. The hearts were also stained with hematoxylin and eosin for light microscopic analysis. Two or three slices of different sections of the heart containing both right and left ventricle were analyzed from each animal. […] Glomerular damage, when present, was characterized as the presence of either segmental or global sclerosis with ischemic or thrombotic changes. Renal arterial and arteriolar damage was categorized as the presence of fibrinoid necrosis of the vascular wall. The renal arterial and arteriolar profiles presenting damage were counted and the number of injured vessels per section was divided by the number of glomeruli in the same section in order to normalize for the amount of tissue examined. […] Statistical analysis. Data were tested for normality using the Kolmogorov-Smirnov test. Systolic blood pressure was analyzed using repeated measures-analysis of variance for time and treatment group. One-way analysis of variance was used for normally distributed data with one grouping variable. Post-hoc analysis was performed using Newman Keuls multiple-comparison test. Data that were not normally distributed were analyzed with the Kruskal-Wallis test. […]"}, "[3]": {"system": "saline-loaded adrenalectomized rats treated with aldosterone", "assay": "Subcutaneous vs. oral eplerenone in saline-loaded adrenalectomized rats treated with aldosterone (Example A-3)", "assay_type": "in vivo", "protocol": "Urinary sodium, potassium and water excretion were measured. The results are expressed as the ratio of excreted urinary sodium to potassium (Na/K)±SEM."}, "[4]": {"system": "aortas of cholesterol-fed rabbits", "assay": "Endothelial function in diet induced atherosclerosis, aortic isometric tension and superoxide (Example A-10)", "assay_type": "in vivo, New Zealand white rabbits", "settings": "50 mg/kg twice daily by gavage, 6 weeks", "protocol": "Methods: New Zealand white rabbits were randomized to four treatment groups. 32 Rabbits were placed on normal (NC) or 1% cholesterol chow (HC) for a duration of 8 weeks. […] Rabbits were euthanized at the end of 8 weeks and the aortas extracted for isometric tension studies and estimation of superoxide (O2^−) generation in vessel segments by lucigenin chemiluminescence (250 μM). Vessels were preconstricted with phenylephrine ([…]) to approximately 50% of peak constriction and dose responses to acetylcholine (Ach) and nitroglycerin (NTG) tested."}, "[5]": {"settings": "EPL 200 mg plus add-on therapy (N=172)"}, "[6]": {"settings": "subgroup 50, 100, 200 mg QD + Ahyp (add-on therapy)"}, "[7]": {"settings": "final dose level EPL 50 mg (N=68)"}, "[8]": {"settings": "final dose level EPL 100 mg (N=89)"}, "[9]": {"settings": "final dose level EPL 200 mg (N=104)"}}, "data": [{"compound": "COC(=O)[C@@H]1CC2=CC(=O)CC[C@]2(C)[C@@]23O[C@@H]2C[C@@]2(C)[C@@H](CC[C@@]24CCC(=O)O4)[C@H]13", "note": "[Eplerenone, Pregn-4-ene-7,21-dicarboxylic acid, 9,11-epoxy-17-hydroxy-3-oxo-, γ-lactone, methyl ester, (7α, 11α, 17β)-]", "values": [{"measurement": "patients responding to eplerenone monotherapy", "setting": "[1]; 261/582", "value": 44.8, "unit": "%"}, {"measurement": "mean change from baseline DBP", "setting": "[1]; [5]", "value": "−14.6"}, {"measurement": "mean change from baseline SBP", "setting": "[1]; [5]", "value": "−24.9"}, {"measurement": "Change Mean seated DBP, Baseline to End of Treatment", "setting": "[1]; subgroup 50 mg QD", "value": "−10.6", "unit": "mmHg"}, {"measurement": "Change Mean seated SBP, Baseline to End of Treatment", "setting": "[1]; subgroup 50 mg QD", "value": "−15.9", "unit": "mmHg"}, {"measurement": "Change Mean seated DBP, Baseline to End of Treatment", "setting": "[1]; subgroup 50, 100 mg QD", "value": "−12.2", "unit": "mmHg"}, {"measurement": "Change Mean seated SBP, Baseline to End of Treatment", "setting": "[1]; subgroup 50, 100 mg QD", "value": "−18.1", "unit": "mmHg"}, {"measurement": "Change Mean seated DBP, Baseline to End of Treatment", "setting": "[1]; subgroup 50, 100, 200 mg QD", "value": "−12.5", "unit": "mmHg"}, {"measurement": "Change Mean seated SBP, Baseline to End of Treatment", "setting": "[1]; subgroup 50, 100, 200 mg QD", "value": "−19.1", "unit": "mmHg"}, {"measurement": "Change Mean seated DBP, Baseline to End of Treatment", "setting": "[1]; [6]", "value": "−14.6", "unit": "mmHg"}, {"measurement": "Change Mean seated SBP, Baseline to End of Treatment", "setting": "[1]; [6]", "value": "−24.9", "unit": "mmHg"}, {"measurement": "gynecomastia", "setting": "[1]; doses of 50, 100, and 200 mg", "value": 0.7, "unit": "%"}, {"measurement": "mean change from baseline DBP", "setting": "[1]; [7]", "value": "−10.6"}, {"measurement": "mean change from baseline SBP", "setting": "[1]; [7]", "value": "−15.9"}, {"measurement": "mean change from baseline DBP", "setting": "[1]; [8]", "value": "−12.2"}, {"measurement": "mean change from baseline SBP", "setting": "[1]; [8]", "value": "−18.1"}, {"measurement": "mean change from baseline DBP", "setting": "[1]; [9]", "value": "−12.5"}, {"measurement": "mean change from baseline SBP", "setting": "[1]; [9]", "value": "−19.1"}, {"measurement": "patients with treatment-emergent AEs of probable relationship to study medication", "setting": "[1]; in vivo", "value": 8.4, "unit": "%"}, {"measurement": "patients with treatment-emergent AEs of uncertain relationship to study medication", "setting": "[1]; in vivo", "value": 21.5, "unit": "%"}, {"measurement": "responders at the end of treatment, number", "setting": "[1]; of 582 patients", "value": 433, "unit": "patients"}, {"measurement": "responders (seDBP<90 mmHg or ≧10 mmHg decrease from Baseline) at the end of treatment", "setting": "[1]; of 582 patients, EPL 50-200 mg QD with or without add-on", "value": 74.3, "unit": "%"}, {"measurement": "patients with elevated K+ levels", "setting": "[1]; primarily those receiving EPL 200 mg", "value": 2.4, "unit": "%"}, {"measurement": "safety and tolerability", "setting": "[1]; up to 14 months, 50-200 mg daily alone or 200 mg/day with another antihypertensive agent", "value": "safe and well tolerated"}, {"measurement": "HW/BW (cardiac hypertrophy index)", "setting": "[2]; end of experiment (day 14), Epl 100 mg/kg/day p.o., ALDO 40 μg/kg/day in adrenalectomized rats", "value": "significantly reduced cardiac hypertrophy"}, {"measurement": "SBP", "setting": "[2]; end of experiment, Epl 100 mg/kg/day p.o., ALDO 40 μg/kg/day in adrenalectomized rats", "value": "not appreciably influenced"}, {"measurement": "urinary protein excretion (24 hour)", "setting": "[2]; end of two-week treatment, eplerenone 100 mg/kg/day p.o.", "value": "prevented the development of proteinuria"}, {"measurement": "cardiac injury / myocardial necrosis (histopathology)", "setting": "[2]; eplerenone 100 mg/kg/day p.o., vs L-NAME/Angiotensin II/NaCl", "value": "markedly reduced"}, {"measurement": "Mean Na/K", "setting": "[3]; Table A-3A, aldosterone + antagonist 10 mg/100 g rat", "value": 2.17}, {"measurement": "Mean Na/K", "setting": "[3]; Table A-3A, aldosterone + antagonist 30 mg/100 g rat", "value": 2.98}, {"measurement": "Mean Na/K", "setting": "[3]; Table A-3A, aldosterone + antagonist 100 mg/100 g rat", "value": 3.44}, {"measurement": "Mean Na/K", "setting": "[3]; Table A-3B, aldosterone + antagonist 3 mg/100 g rat", "value": 0.90}, {"measurement": "Mean Na/K", "setting": "[3]; Table A-3B, aldosterone + antagonist 10 mg/100 g rat", "value": 1.34}, {"measurement": "Mean Na/K", "setting": "[3]; Table A-3B, aldosterone + antagonist 30 mg/100 g rat", "value": 1.18}, {"measurement": "Mean Na/K", "setting": "[3]; Table A-3B, aldosterone + antagonist 100 mg/100 g rat", "value": 2.10}, {"measurement": "Mean Na/K", "setting": "[3]; Table A-3B, aldosterone + antagonist 300 mg/100 g rat", "value": 4.79}, {"measurement": "Mean Na/K", "setting": "[3]; Table A-3B, aldosterone + antagonist 1000 mg/100 g rat", "value": 5.70}, {"measurement": "efficacy of subcutaneous injection versus oral administration", "setting": "[3]; antagonism of aldosterone-mediated renal effects", "value": "Subcutaneous injection provided better efficacy than oral administration"}, {"measurement": "ED50 Ach", "setting": "[4]; 1% cholesterol chow", "value": 68, "unit": "nM"}, {"measurement": "ED50 NTG", "setting": "[4]; 1% cholesterol chow", "value": 10, "unit": "nM"}, {"measurement": "ED50 Ach", "setting": "[4]; normal chow", "value": 32, "unit": "nM"}, {"measurement": "ED50 NTG", "setting": "[4]; normal chow", "value": 5.7, "unit": "nM"}]}]}
